Laboratory results reported in patent publication US11654169B2, “Methods for protecting skin and/or promoting wound healing” (SINPHAR PHARMACEUTICAL CO., LTD., priority 2016, dated 2023).

Key:
Assay type in all cases: cell-based
[1] = test system: normal primary human skin fibroblastic cells; experiment: Intracellular content of collagen in fibroblasts (Western blot and ELISA), relative to control; conditions: 48 hours; for relative intracellular content of collagen: control group = 100%; for intracellular contents of collagen as compared to the control group (in words): treated cells vs control group
Method: (§1) The normal primary human skin fibroblastic cells (purchased from ATCC) were cultivated in a Fibroblast Growth Medium. The cells thus provided were used in the following experiments. […]
(§2) The normal primary human skin fibroblastic cells provided by [Preparation Example C] were divided into 37 groups and were respectively cultivated with the following medium for 48 hours: • 1. Group 1: a Fibroblast Growth Medium • 2. Group 2-1 to 2-3: Fibroblast Growth Media containing the pachymic acid (PA) provided by [Preparation Example B] at a concentration of 0.01, 0.1 and 1 μM, respectively; • 3. Group 3-1 to 3-3: Fibroblast Growth Media containing the dehydropachymic acid (DPA) provided by [Preparation Example B] at a concentration of 0.01, 0.1 and 1 μM, respectively; • 4. Group 4-1 to 4-3: Fibroblast Growth Media containing the tumulosic acid (TA) provided by [Preparation Example B] at a concentration of 0.01, 0.1 and 1 μM, respectively; • 5. Group 5-1 to 5-3: Fibroblast Growth Media containing the dehydrotumulosic acid (DTA) provided by [Preparation Example B] at a concentration of 0.01, 0.1 and 1 μM, respectively; • 6. Group 6-1 to 6-3: Fibroblast Growth Media containing the polyporenic acid C (PAC) provided by [Preparation Example B] at a concentration of 0.01, 0.1 and 1 μM, respectively; • 7. Group 7-1 to 7-3: Fibroblast Growth Media containing the 3-epi-dehydrotumulosic acid (EDTA) provided by [Preparation Example B] at a concentration of 0.01, 0.1 and 1 μM, respectively; • 8. Group 8-1 to 8-3: Fibroblast Growth Media containing the dehydrotrametenolic acid (DTTA) provided by [Preparation Example B] at a concentration of 0.01, 0.1 and 1 μM, respectively; • 9. Group 9-1 to 9-3: Fibroblast Growth Media containing the trametenolic acid (TTA) provided by [Preparation Example B] at a concentration of 0.01, 0.1 and 1 μM, respectively; • 10. Group 10-1 to 10-3: Fibroblast Growth Media containing the poricoic acid A (PAA) provided by [Preparation Example B] at a concentration of 0.01, 0.1 and 1 μM, respectively; • 11. Group 11-1 to 11-3: Fibroblast Growth Media containing the dehydroeburicoic acid (DEA) provided by [Preparation Example B] at a concentration of 0.01, 0.1 and 1 μM, respectively; • 12. Group 12-1 to 12-3: Fibroblast Growth Media containing the poricoic acid B (PAB) provided by [Preparation Example B] at a concentration of 0.01, 0.1 and 1 μM, respectively; • 13. Group 13-1 to 13-3: Fibroblast Growth Media containing the eburicoic acid (EA) provided by [Preparation Example B] at a concentration of 0.01, 0.1 and 1 μM, respectively.
Thereafter, the cell medium of each group was collected and concentrated. Then, the intracellular content of collagen was measured and analyzed by Western blot and enzyme-linked immunosorbent assay (ELISA).

[2] = test system: normal primary human skin fibroblastic cells; experiment: Content of collagen in cell medium (extracellular collagen) of fibroblasts (Western blot and ELISA), relative to control; conditions: 48 hours; for relative content of collagen in the medium (extracellular content of collagen): control group = 100%; for extracellular contents of collagen (collagen in cell medium) as compared to the control group (in words): treated cells vs control group
Method: The normal primary human skin fibroblastic cells (purchased from ATCC) were cultivated in a Fibroblast Growth Medium. The cells thus provided were used in the following experiments.
The normal primary human skin fibroblastic cells provided by [Preparation Example C] were divided into 4 groups and were respectively cultivated with the following medium for 48 hours: • 1. Group I: a Fibroblast Growth Medium; • 2.
(§3) Thereafter, the cell medium of each group was collected and concentrated. Then, the intracellular content of collagen, the content of collagen in cell medium (i.e., extracellular content of collagen) and the content of hyaluronic acid in cell medium were measured and analyzed by Western blot and enzyme-linked immunosorbent assay (ELISA).
as §2
The content of collagen in the medium of each group (i.e., extracellular content of collagen) was provided.

[3] = test system: normal primary human skin fibroblastic cells; experiment: Content of hyaluronic acid in cell medium of fibroblasts (Western blot and ELISA), relative to control; conditions: 48 hours; for relative content of hyaluronic acid in the medium (extracellular content of hyaluronic acid): control group = 100%; for contents of hyaluronic acid as compared to the control group (in words) / contents of hyaluronic acid, ingredients singled out as stronger (in words): treated cells vs control group; for contents of hyaluronic acid, ingredients singled out as stronger (in words): compared with the other active ingredients
Method: as §1, §3, §2
The content of hyaluronic acid in the medium of each group (i.e., extracellular content of hyaluronic acid) was provided.

SMILES	relative intracellular content of collagen ([1]; 0.01 μM)	relative intracellular content of collagen ([1]; 0.1 μM)	relative intracellular content of collagen ([1]; 1 μM)	relative content of collagen in the medium (extracellular content of collagen) ([2]; 0.01 μM)	relative content of collagen in the medium (extracellular content of collagen) ([2]; 0.1 μM)	relative content of collagen in the medium (extracellular content of collagen) ([2]; 1 μM)	relative content of hyaluronic acid in the medium (extracellular content of hyaluronic acid) ([3]; 0.01 μM)	relative content of hyaluronic acid in the medium (extracellular content of hyaluronic acid) ([3]; 0.1 μM)	relative content of hyaluronic acid in the medium (extracellular content of hyaluronic acid) ([3]; 1 μM)	extracellular contents of collagen (collagen in cell medium) as compared to the control group (in words) [2]	contents of hyaluronic acid as compared to the control group (in words) [3]	intracellular contents of collagen as compared to the control group (in words) [1]	contents of hyaluronic acid, ingredients singled out as stronger (in words) [3]
C=C(CC[C@@H](C(=O)O)[C@H]1[C@H](O)C[C@@]2(C)C3=C(CC[C@]12C)[C@@]1(C)CC[C@H](O)C(C)(C)[C@@H]1CC3)C(C)C [Tumulosic acid (TA), tumulosic acid]	148%	127%	147%	140%	136%	141%	100%	123%	124%				
C=C(CC[C@@H](C(=O)O)[C@H]1CC[C@@]2(C)C3=CC[C@H]4C(C)(C)[C@@H](O)CC[C@]4(C)C3=CC[C@]12C)C(C)C [Dehydroeburicoic acid (DEA), dehydroeburicoic acid]	94%	80%	77%	143%	148%	185%	115%	118%	128%	significantly enhanced	significantly enhanced		
C=C(C)[C@@H]1CC=C2C(=CC[C@]3(C)[C@@H]([C@@H](CCC=C(C)C)C(=O)O)[C@H](O)C[C@@]23C)[C@@]1(C)CCC(=O)O [Poricoic acid B (PAB), poricoic acid B]	105%	108%	99%	122%	136%	153%	109%	104%	84%	significantly enhanced	significantly enhanced		
C=C(CC[C@@H](C(=O)O)[C@H]1[C@H](O)C[C@@]2(C)C3=CC[C@H]4C(C)(C)[C@@H](O)CC[C@]4(C)C3=CC[C@]12C)C(C)C [Dehydrotumulosic acid (DTA), dehydrotumulosic acid]	159%	156%	127%	122%	105%	139%	112%	134%	168%	significantly enhanced	significantly enhanced	significantly enhanced	enhanced more significantly
C=C(CC[C@@H](C(=O)O)[C@H]1CC[C@@]2(C)C3=C(CC[C@]12C)[C@@]1(C)CC[C@H](O)C(C)(C)[C@@H]1CC3)C(C)C [Eburicoic acid (EA), eburicoic acid]	102%	97%	95%	108%	106%	88%	94%	107%	120%	significantly enhanced	significantly enhanced		
C=C(CC[C@@H](C(=O)O)[C@H]1[C@H](O)C[C@@]2(C)C3=CC[C@H]4C(C)(C)C(=O)CC[C@]4(C)C3=CC[C@]12C)C(C)C [Polyporenic acid C (PAC), polyporenic acid C]	162%	182%	200%	134%	162%	153%	93%	113%	98%	significantly enhanced	significantly enhanced	significantly enhanced	
C=C(CC[C@@H](C(=O)O)[C@H]1[C@H](O)C[C@@]2(C)C3=CC[C@@H](C(=C)C)[C@](C)(CCC(=O)O)C3=CC[C@]12C)C(C)C [Poricoic acid A (PAA), poricoic acid A]	78%	104%	115%	111%	111%	91%	108%	106%	99%	significantly enhanced	significantly enhanced	significantly enhanced	
C=C(CCC(C(=O)O)[C@H]1[C@H](O)C[C@@]2(C)C3=CC[C@H]4C(C)(C)[C@@H](OC(C)=O)CC[C@]4(C)C3=CC[C@]12C)C(C)C (some centres unmarked) [Dehydropachymic acid (DPA), dehydropachymic acid]	154%	188%	122%	124%	122%	116%	111%	131%	152%	significantly enhanced	significantly enhanced	significantly enhanced	enhanced more significantly
